Laboratory results: the NIST ThermoML archive (doi:10.1021/je200673a)
± gives the expanded uncertainty stated by the source.

Experiment: Molar enthalpy of transition or fusion
Conditions: Crystal; Adiabatic calorimetry

- Molar enthalpy of transition or fusion: 5.029 ± 0.0454 kcal/mol
Structure (SMILES): C(#Cc1ccccc1)c1ccccc1 [1,2-diphenylethyne]
